Here are results for one compound from patent US20240050524A1, “DELIVERY OF ABETA VARIANTS FOR AGGREGATION INHIBITION” (Baylor College of Medicine, priority 2020, published 2024).

This experiment deals with γ-secretase. As to the kind of experiment: Dependence of Aβ release from transfected N2a cells on γ-secretase activity (IP/immunoblot of conditioned media). The class given is cell-based, murine. The following applies: 'KK' minimal construct; 0.1 or 1 nM. Here is the method:
Collection of Aβ peptides from N2a conditioned media. N2a cells were grown in 6 well plates using Dulbecco's modified Eagle's medium (DMEM) (#12-604F, VWR) supplemented with […] penicillin/streptomycin and 10% fetal bovine serum until approximately 90% confluent. […] Twenty-four hours later, cells were washed with 1×Dulbecco's PBS, and a serum-reduced medium consisting of DMEM and 0.2% fetal bovine serum was added before the cells were returned to 5% CO2 at 37° C. Conditioned media was harvested 24 hr later and centrifuged at 10,000 rpm for 5 min at 4° C. (2 ml/well×3 wells per IP reaction). To test the dependence of Aβ release on γ-secretase activity, cells were transfected as above, with the subsequent media replacement including 0.1 or 1 nM of LY411575 (#SML0506, Sigma). Supernatants were collected and supplemented with protease inhibitors (#5892970001, Sigma) and 0.01% NaN3 (#S2002, Sigma) to prevent proteolytic degradation.
Aβ IP from conditioned media for immunoblot. Protein G Dynabeads (50 μl, #10003D, Fisher) were loaded with mouse anti-Aβ antibody 6E10 (1 ug, #SIG-39320, BioLegend, San Diego, CA) for 1 hr at RT. […] Antibody binding was detected using […] secondary antibody conjugated with IRDye, diluted 1:20,000 in block (#26-32210, LI-COR, Lincoln, NE). Blots were imaged with an Odyssey Fc Imager and analyzed with Image Studio software (LI-COR).

“Also recorded” adds a separate entry of the source.

For the compound `C[C@H](NC(=O)[C@@H](O)c1cc(F)cc(F)c1)C(=O)N[C@@H]1C(=O)N(C)c2ccccc2-c2ccccc21` [LY411575], the “block of Aβ secretion into the media” value was “blocked release of variant Aβ into the media in a concentration-dependent manner; also recorded: blocked in a dose-dependent manner”.
